In USRE38169E1, “Hyperstabilizing antisense nucleic acid binding agents” (priority 1993, dated 2003):

What was measured:
[1] = tested on: mRNA of a fragment of the env gene of EIAV; test: In vitro translation (wheat-germ extract, 35S-methionine); assay type: biochemical
Procedure: The in vitro translation studies were performed as follows. A fragment of DNA from the env gene of EIAV was transcribed with an SP-6 polymerase kit, and the resulting mRNA (approximately 600 bases long) was capped and isolated. The transcribed fragment included the target sequence 5′-[…]-3′ (SEQ ID NO. 3) (the CC-1065 binding site is underlined). The corresponding antisense sequence (using normal phosphodiester chemistry) was 5′-[…]-3′ (SEQ ID NO. 4). Translation was performed with a wheat-germ extract (Promega) in the presence of ^35S-methionine. The mRNA's were divided into approximately 2 μg aliquots, and treated according to the protocols listed for Table 3 below. Treated mRNA was separated from small molecules (such as DMSO and CC-1065) with a Sephadex 50-based NICK column. Translation was carried out in 25 μl of buffer containing the wheat germ translation system; the isolated mRNA; amino acids, including the labelled methionine; and RNAsin, an inhibitor of RNase. The proteins produced were divided into two aliquots. One aliquot was fractionated by SDS-PAGE, followed by autoradiography; and the other was analyzed by scintillation spectrometry. The concentrations of antisense oligomers and CC-1065 in the free-solution chemistries were relatively high compared to the sense target, to optimize duplex formation and drug binding. […] The following pairs were different at the P<0.05 level by Student's t-test (unpaired analysis): 1,5; 2,5; 3,4; 3,5; 4,5.

[2] = tested on: DNA sense (SEQ ID NO. 1) / DNA-PO antisense duplex (PO-PO); test: Duplex strand separation temperature (Tm); assay type: binding, equine infectious anemia retrovirus; details: for Tm Elevation: highest level of binding obtained
Procedure: (§1) Samples for determining Tm were also obtained by the above procedures. […] Thus the effects of this agent on Tm were carried out with Distamycin in solution with the duplexes tested.
(§2) Tm's were determined on a Gilford 2400 Spectrophotometer set at 260 nm, with a 4-chamber Peltier-based temperature controller. Temperature was ramped linearly at 0.5° C./min. Absorbance data were acquired with a 12-bit A/D converter, and data were processed with Lotus 123W and SigmaPlot software. Tm values were determined from the plots as the midpoint of the thermal transitions.

[3] = tested on: DNA sense (SEQ ID NO. 1) / DNA-PS antisense duplex; test: Duplex strand separation temperature (Tm); assay type: binding, equine infectious anemia retrovirus; details: for Tm Elevation: highest level of binding obtained
Procedure: as §1, §2

Oligo dA - Oligo dT = test: Duplex strand separation temperature (Tm); assay type: binding; details: for Tm Elevation: highest level of binding obtained
Procedure: as §1, §2

Poly rA - Oligo dT (PO) = test: Duplex strand separation temperature (Tm); assay type: binding; details: for Tm Elevation: highest level of binding obtained
Procedure: as §1, §2

[4] = tested on: DNA sense (SEQ ID NO. 1) / DNA-MP antisense duplex (PO-MP); test: Duplex strand separation temperature (Tm); assay type: binding, equine infectious anemia retrovirus
Procedure: as §1, §2

Poly(rA)-Oligo(dT) = test: Binding of drug to duplex (NACS column, A365/A260); details: Poly(rA)-Oligo(dT); Initial D/N = 0.10
Procedure: (§3) Oligodeoxyribonucleotides were obtained by chemical synthesis through standard techniques on an automated synthesizer located in the Department of Veterinary Microbiology and Parasitology at Louisiana State University. Antisense MP and PS oligonucleotides were obtained from commercial sources, as was synthetic sense RNA. Poly(rA) was obtained from Sigma Chemical Co. CC-1065 was obtained from the Upjohn Company. Oligonucleotides (0.075 μmol-P each) were mixed in 0.36 ml 0.01 M Na cacodylate buffer, pH 7.2, with CC-1065 in dimethyl formamide (0.04 ml), or with dimethylformamide only. (Note that “μmol-P” denotes μmoles of phosphate; i.e., μmoles of nucleotide bases, rather than of oligonucleotides per se.) Incubations of complementary strands, with or without drug, were carried out at 37° C. for 4 hr. In the initial experiments, unbound drug was separated from nucleotide duplexes by ethanol precipitation. Equivalent results were obtained by trapping the oligonucleotides and CC-1065 on NACS-52 columns, and washing first with low-salt buffer and then with buffer containing 1M NaCl. Unbound CC-1065 was completely retained on the column. […] Samples prepared in this manner could be directly used for determination of binding of the drug to the nucleic acid (as measured by the A365/A260 ratio), with the extinction of CC-1065 absorbance at 365 nm taken as 48,000, and the extinction of the nucleic acid absorption at 260 nm based on its composition. Similar approaches were used with the drug U-71,184, with an assumed extinction of 32,000 at 365 nm.
(§4) When methyl phosphonate and synthetic RNA were used, the purities of the crude oligonucleotides were taken to be about 30%, based on the data sheet prepared by the supplier. (The remainder comprised primarily truncated sequences.) Appropriate excess amounts of these agents were included in the reactions to ensure helix formation. The corresponding sense or antisense oligonucleotides were maintained at 0.075 μmol-P in the reaction. […] Unpurified materials were used in these preliminary studies because of the relatively high cost of purified oligoribonucleotides. The majority of the contributions to A260 for these samples should be due to material that was not duplexed.
(§5) Table 1 summarizes binding data obtained from incubations of CC-1065 with nucleotides at greater than stoichiometric levels; the levels used in these experiments were 1 drug molecule/10 nucleotide residues, which is equivalent to 4 drug molecules/20-mer duplex. […] There seemed to be no difference in drug binding between antisense oligonucleotides with a PO and those with a PS backbone. Again, the 5′-AGTTA-3′ sequence on the sense strand was presumably the primary target, and the 3′-AAGTA-5′ on the antisense probe was presumably the secondary target.

Oligo(dA)-Oligo(dT) = test: Binding of drug to duplex (NACS column, A365/A260); details: Oligo(dA)-Oligo(dT); Initial D/N = 0.10
Procedure: as §3, §4, §5

[5] = tested on: DNA sense (SEQ ID NO. 1) / DNA-PS antisense duplex (PO-PS); test: Binding of drug to duplex (NACS column, A365/A260); parameters: species or system equine infectious anemia retrovirus; details: PO-PS; Initial D/N = 0.10
Procedure: as §3, §4, §5

[6] = tested on: DNA sense (SEQ ID NO. 1) / DNA-PO antisense (SEQ ID NO. 2) duplex (PO-PO); test: Binding of drug to duplex (NACS column, A365/A260); parameters: species or system equine infectious anemia retrovirus; details: PO-PO; Initial D/N = 0.10
Procedure: as §3, §4, §5

[7] = tested on: DNA sense (SEQ ID NO. 1) / DNA-MP antisense duplex (PO-MP); test: Binding of drug to duplex (NACS column, A365/A260); parameters: species or system equine infectious anemia retrovirus
Procedure: as §3, §4, §5

5′-TGTTGGGTAATAGGGGTTGA-3′ (SEQ ID NO. 4) (chemistry not given here) [antisense]
DPM S-35 ± standard error ([1]; 1.95 μg mRNA, antisense about 3 times mRNA sense, CC-1065 3 times antisense, scintillation spectrometry): 35.225 ± 3.667 DPM | Production of the two protein products (autoradiography) ([1]; SDS-PAGE, autoradiography, data not shown): suppressed production | Effect on translation ([1]; in vitro translation of env mRNA fragment): partially inhibit translation

Cn1cc(NC(=O)c2cc(NC(=O)c3cc(NC=O)cn3C)cn2C)cc1C(=O)NCCC(=N)N [Distamycin, Distamycin A]
Increase in Tm ([2]; PO-PO, Distamycin in solution at D/N = 0.1): 0.7 | Tm with Distamycin, Ave ± S.D. ([2]; PO-PO, Distamycin in solution at D/N = 0.1, in °C (unit assumed)): 68.7 ± 0.6 | Tm Elevation ([2]; PO-PO): 0.7 °C | Increase in Tm ([3]; PS-PS, Distamycin in solution at D/N = 0.1): 1.5 | Tm with Distamycin, Ave ± S.D. ([3]; PS-PS, Distamycin in solution at D/N = 0.1, in °C (unit assumed)): 65.7 ± 1.5 | Tm Elevation ([3]; PS-PS): 1.5 °C | Increase in Tm (Oligo dA - Oligo dT; dA-dT, Distamycin in solution at D/N = 0.1): 21.3 | Tm with Distamycin, Ave ± S.D. (Oligo dA - Oligo dT; dA-dT, Distamycin in solution at D/N = 0.1, in °C (unit assumed)): 78.3 ± 0.6 | Tm Elevation (Oligo dA - Oligo dT; dA-dT): 21.3 °C | Elevation of Tm (Oligo dA - Oligo dT; oligo(dA)-oligo(dT)): significant elevation of Tm | Increase in Tm (Poly rA - Oligo dT (PO); rA-dT, Distamycin in solution at D/N = 0.1): 4.0 | Tm with Distamycin, Ave ± S.D. (Poly rA - Oligo dT (PO); rA-dT, Distamycin in solution at D/N = 0.1, in °C (unit assumed)): 57.0 ± 0 | Tm Elevation (Poly rA - Oligo dT (PO); rA-dT): 4.0 °C

Cc1c[nH]c2c1C13CC1CN(C(=O)c1cc4cc(NC(=O)c5cc6ccccc6[nH]5)ccc4[nH]1)C3=CC2=O (stereo not drawn) [U-71.184, U-71,184]
Duplex Strand Separation Temperature ([2]; DNA / DNA-PO, drug-bound duplex (Table 6)): 75.5 ± 0.7 | Tm Elevation ([2]; PO-PO): 7.5 °C | Duplex Strand Separation Temperature ([3]; DNA / DNA-PS, drug-bound duplex (Table 6)): 73.0 ± 1.4 | Tm Elevation ([3]; PS-PS): 8.6 °C | Duplex Strand Separation Temperature ([4]; DNA / DNA-MP, drug-bound duplex (Table 6)): 73.0 ± 1.7 | Tm Elevation ([4]; PO-MP, highest level of binding obtained): 19.5 °C | Bound D/N (Poly(rA)-Oligo(dT)): 0.023 ± 0.001 | Bound D/N (Oligo(dA)-Oligo(dT)): 0.049 ± 0.001 | Duplex Strand Separation Temperature (Oligo dA - Oligo dT; Oligo dA / Oligo dT, drug-bound duplex (Table 6)): 86.7 ± 0.6 | Tm Elevation (Oligo dA - Oligo dT; dA-dT): 29.7 °C | Duplex Strand Separation Temperature (Poly rA - Oligo dT (PO); Poly rA / Oligo dT (PO), drug-bound duplex (Table 6)): 54.3 ± 0.6 | Stabilization of duplexes (Poly rA - Oligo dT (PO); poly(rA)-oligo(dT)): failure of U-71,184 to stabilize | Tm Elevation (Poly rA - Oligo dT (PO); rA-dT): 1.3 °C | Bound D/N [5]: 0.026 ± 0.001 | Bound D/N [6]: 0.026 ± 0.004 | Binding for MP antisense sequences ([7]; MP antisense sequences): about 1 drug molecule/duplex | Bound D/N ([7]; PO-MP, Initial D/N = 0.10): 0.029 ± 0.001
